Experimental data reported in patent publication US20250311722A1, “IMPROVED BIOCIDE” (Purgos ApS, priority 2022, published 2025).
“And” between values parts separate entries of the source, which are not always exact repeats. Equal values may be shown once.

How the values were obtained:
Assay type in all cases: cell-based
[1] = system: Gloeophyllum trabeum. BAM Ebw. 109; assay: EN 113 test against wood destroying basidiomycetes; settings: for Corrected mass loss / Mass loss: single blocks; for Corrected mass loss, Mean / Mass loss, Mean: mean of blocks
Source text: (§1) EN 113, 2020: Durability of wood and wood-based products-Test method against wood destroying basidiomycetes. Assessment of biocidal efficacy of wood preservatives.
(§2) Assessment of the results shown in table XIV.: The protection provided for the wood by the test preservative at the given concentration is deemed to be adequate if: • a) the corrected mean loss is less than 3.0% (m/m) • b) not more than one specimen has suffered a loss in mass greater than 3.0% (m/m) but less than 5.0% (m/m)
(§3) The impregnation process was carried out on 24-03-2021 with the following conditions:
(§4) Pre-vacuum at 0.1 bar for 30 minutes.
(§5) Pressure of 13 bars for 60 minutes.
(§6) Scots pine sapwood (Pinus sylvestris L.) for brown rot fungi with an average density of 589 kg/m3.
(§7) 4 weeks according to EN 113 at 65% RH and 20° C. until stable mass was obtained.
(§8) Ionising radiation (2× 25 kGy).

[2] = system: Poria placenta. FPRL 280; assay: EN 113 test against wood destroying basidiomycetes; settings: for Corrected mass loss / Mass loss: single blocks
Source text: as §1, §2, §3, §4, §5, §6, §7, §8

[3] = system: Pseudomonas aeruginosa ISI 1462; assay: Minimum bactericidal concentration (MBC); set-up: MBC data (outgrowth): unit not given here
Source text: (§9) Even when no growth is detectable in the MIC tests, it is possible that the microorganisms have survived the treatment i.e., they are not killed but just prevented from growing. In order to test for survivors, MBC plates were subsequently made from the MIC plates.

[4] = system: Salmonella Infantis ISI 170; assay: Minimum bactericidal concentration (MBC); set-up: MBC data (outgrowth): unit not given here
Source text: as §9

[5] = system: Debaryomyces hansenii ISI 12; assay: Minimum bactericidal concentration (MBC); set-up: MBC data (outgrowth): unit not given here
Source text: as §9

[6] = system: Leuconostoc mesenteroides ISI 504; assay: Minimum bactericidal concentration (MBC); set-up: MBC data (outgrowth): unit not given here
Source text: as §9

[7] = system: Bacillus cereus ISI 842; assay: Minimum bactericidal concentration (MBC); set-up: MBC data (outgrowth): unit not given here
Source text: as §9

[8] = system: Listeria monocytogenes ISI 22; assay: Minimum bactericidal concentration (MBC); set-up: MBC data (outgrowth): unit not given here
Source text: as §9

[9] = system: Streptococcus termophilus ISI 1563; assay: Minimum bactericidal concentration (MBC); set-up: MBC data (outgrowth): unit not given here
Source text: as §9

[10] = system: Lactobacillus brevis ISI 2269; assay: Minimum bactericidal concentration (MBC); set-up: MBC data (outgrowth): unit not given here
Source text: as §9

[11] = concentrations of 0.36%, 0.51%, 0.72%, 1.01% and 1.43%

## CCCCN(CCO)CCO [NBDA, N-butyldiethanolamine]
[1]; Scots pine sapwood
  Toxic value, Retention of product: 6.85-10.03 kg/m^3
  Toxic value, Solution conc.: 1.01-1.43 % w/w
[1]; [11]
  fungicide for preventing wood destruction: effective as a fungicide
[1]; solution conc. 0.36% w/w
  Corrected mass loss: 44.8% and 30.6% and 32.5% and 33.8%
  Mass loss: 45.0% and 30.8% and 32.7% and 34.0%
[1]; solution conc. 0.36 % w/w
  Corrected mass loss, Mean: 35.4%
  Mass loss, Mean: 35.6%
[1]; solution conc. 0.51% w/w
  Corrected mass loss: 34.8% and 29.4% and 36.4% and 31.1%
  Mass loss: 35.0% and 29.6% and 36.6% and 31.3%
[1]; solution conc. 0.51 % w/w
  Corrected mass loss, Mean: 32.9%
  Mass loss, Mean: 33.1%
[1]; solution conc. 0.72% w/w
  Corrected mass loss: 30.9% and 33.1% and 34.2% and 26.5%
  Mass loss: 30.6% and 32.7% and 33.8% and 26.1%
[1]; solution conc. 0.72 % w/w
  Corrected mass loss, Mean: 31.2%
  Mass loss, Mean: 30.8%
[1]; solution conc. 1.01 % w/w
  Corrected mass loss, Mean: 11.4%
  Mass loss, Mean: 11.0%
[1]; solution conc. 1.43% w/w
  Corrected mass loss: 0.7% and 0.3% and 2.0%
  Mass loss: −0.4% and −0.8% and 1.0% and 0.9%
[1]; solution conc. 1.43 % w/w
  Corrected mass loss, Mean: 1.3%
  Mass loss, Mean: 0.2%
[2]; Scots pine sapwood
  Toxic value, Retention of product: 4.87-7.02 kg/m^3
  Toxic value, Solution conc.: 0.72-1.01 % w/w
[2]; [11]
  fungicide for preventing wood destruction: effective as a fungicide
[2]; solution conc. 0.36% w/w
  Corrected mass loss, Mean: 14.2%
  Mass loss, Mean: 14.4%
  Corrected mass loss: 14.0% and 19.2% and 11.4% and 12.3%
  Mass loss: 14.2% and 19.4% and 11.6% and 12.5%
[2]; solution conc. 0.51% w/w
  Corrected mass loss, Mean: 14.6%
  Mass loss, Mean: 14.8%
  Corrected mass loss: 14.0% and 17.1% and 14.2% and 13.3%
  Mass loss: 14.2% and 17.3% and 14.4% and 13.5%
[2]; solution conc. 0.72% w/w
  Corrected mass loss, Mean: 8.2%
  Mass loss, Mean: 7.8%
  Corrected mass loss: 9.2% and 9.0% and 6.3% and 8.2%
  Mass loss: 8.9% and 8.7% and 5.9% and 7.9%
[2]; solution conc. 1.01% w/w
  Corrected mass loss, Mean: 1.4%
  Mass loss, Mean: 1.0%
  Corrected mass loss: 2.5% and 0.1% and 1.3% and 1.9%
  Mass loss: 2.0% and −0.3% and 0.8% and 1.4%
[2]; solution conc. 1.43% w/w
  Corrected mass loss, Mean: 1.5%
  Mass loss, Mean: 0.4%
  Corrected mass loss: 0.5% and 4.1% and 0.7% and 0.6%
  Mass loss: −0.6% and 3.0% and −0.4% and −0.5%
[3]
  MBC (%): 1.25%
[3]; 0.02% NBDA
  MBC data (outgrowth): 1.360 and 2.248
[3]; 0.04% NBDA
  MBC data (outgrowth): 2.186 and 1.311
[3]; 0.08% NBDA
  MBC data (outgrowth): 1.779 and 2.051
[3]; 0.16% NBDA
  MBC data (outgrowth): 1.680 and 2.303
[3]; 0.31% NBDA
  MBC data (outgrowth): 1.477 and 1.570
[3]; 0.63% NBDA
  MBC data (outgrowth): 1.909 and 1.789
[3]; 1.25% NBDA
  MBC data (outgrowth): 0.071 and 0.070
[3]; 2.50% NBDA
  MBC data (outgrowth): 0.071 and 0.069
[3]; 5.00% NBDA
  MBC data (outgrowth): 0.066 and 0.061
[4]
  MBC (%): 1.25%
[4]; 0.02% NBDA
  MBC data (outgrowth): 1.732 and 1.806
[4]; 0.04% NBDA
  MBC data (outgrowth): 1.858 and 1.853
[4]; 0.08% NBDA
  MBC data (outgrowth): 1.841 and 1.791
[4]; 0.16% NBDA
  MBC data (outgrowth): 1.826 and 1.827
[4]; 0.31% NBDA
  MBC data (outgrowth): 1.786 and 1.488
[4]; 0.63% NBDA
  MBC data (outgrowth): 1.806 and 1.787
[4]; 1.25% NBDA
  MBC data (outgrowth): 0.074 and 0.071
[4]; 2.50% NBDA
  MBC data (outgrowth): 0.068 and 0.070
[4]; 5.00% NBDA
  MBC data (outgrowth): 0.066 and 0.060
[5]
  MBC (%): 2.5%
[5]; 0.02% NBDA
  MBC data (outgrowth): 1.491 and 1.495
[5]; 0.04% NBDA
  MBC data (outgrowth): 1.493 and 1.461
[5]; 0.08% NBDA
  MBC data (outgrowth): 1.472
[5]; 0.16% NBDA
  MBC data (outgrowth): 1.473 and 1.469
[5]; 0.31% NBDA
  MBC data (outgrowth): 1.432 and 1.393
[5]; 0.63% NBDA
  MBC data (outgrowth): 1.387 and 1.458
[5]; 1.25% NBDA
  MBC data (outgrowth): 1.333 and 1.309
[5]; 2.50% NBDA
  MBC data (outgrowth): 0.074
[5]; 5.00% NBDA
  MBC data (outgrowth): 0.068 and 0.069
[6]
  MBC (%): 0.63%
[6]; 0.02% NBDA
  MBC data (outgrowth): 1.449 and 1.467
[6]; 0.04% NBDA
  MBC data (outgrowth): 1.449 and 1.468
[6]; 0.08% NBDA
  MBC data (outgrowth): 1.413 and 1.467
[6]; 0.16% NBDA
  MBC data (outgrowth): 1.337 and 1.425
[6]; 0.31% NBDA
  MBC data (outgrowth): 1.452 and 1.448
[6]; 1.25% NBDA
  MBC data (outgrowth): 0.075
[6]; 2.50% NBDA
  MBC data (outgrowth): 0.076 and 0.077
[6]; 5.00% NBDA
  MBC data (outgrowth): 0.066 and 0.067
[7]
  MBC (%): 1.25%
[7]; 0.02% NBDA
  MBC data (outgrowth): 1.261 and 1.253
[7]; 0.04% NBDA
  MBC data (outgrowth): 1.106 and 1.352
[7]; 0.08% NBDA
  MBC data (outgrowth): 1.098 and 1.118
[7]; 0.16% NBDA
  MBC data (outgrowth): 1.286 and 1.086
[7]; 0.31% NBDA
  MBC data (outgrowth): 1.277 and 1.161
[7]; 0.63% NBDA
  MBC data (outgrowth): 1.117 and 1.001
[7]; 1.25% NBDA
  MBC data (outgrowth): 0.075 and 0.076
[7]; 2.50% NBDA
  MBC data (outgrowth): 0.072 and 0.078
[7]; 5.00% NBDA
  MBC data (outgrowth): 0.066
[8]
  MBC (%): 2.5%
[8]; 0.02% NBDA
  MBC data (outgrowth): 1.197 and 1.009
[8]; 0.04% NBDA
  MBC data (outgrowth): 1.195 and 1.097
[8]; 0.08% NBDA
  MBC data (outgrowth): 1.201 and 1.059
[8]; 0.16% NBDA
  MBC data (outgrowth): 1.216 and 1.141
[8]; 0.31% NBDA
  MBC data (outgrowth): 1.320 and 1.310
[8]; 0.63% NBDA
  MBC data (outgrowth): 1.496 and 1.507
[8]; 1.25% NBDA
  MBC data (outgrowth): 1.517 and 1.533
[8]; 2.50% NBDA
  MBC data (outgrowth): 0.065 and 0.070
[8]; 5.00% NBDA
  MBC data (outgrowth): 0.060 and 0.062
[9]
  MBC (%): 1.25%
[9]; 0.02% NBDA
  MBC data (outgrowth): 0.346 and 0.323
[9]; 0.04% NBDA
  MBC data (outgrowth): 0.307 and 0.283
[9]; 0.08% NBDA
  MBC data (outgrowth): 0.311 and 0.304
[9]; 0.16% NBDA
  MBC data (outgrowth): 0.251 and 0.232
[9]; 0.31% NBDA
  MBC data (outgrowth): 0.802 and 0.522
[9]; 0.63% NBDA
  MBC data (outgrowth): 0.277 and 0.427
[9]; 1.25% NBDA
  MBC data (outgrowth): 0.072
[9]; 2.50% NBDA
  MBC data (outgrowth): 0.070 and 0.068
[9]; 5.00% NBDA
  MBC data (outgrowth): 0.062 and 0.058
[10]
  MBC (%): 0.31%
[10]; 0.02% NBDA
  MBC data (outgrowth): 0.446 and 0.463
[10]; 0.04% NBDA
  MBC data (outgrowth): 0.439 and 0.455
[10]; 0.08% NBDA
  MBC data (outgrowth): 0.447 and 0.470
[10]; 0.16% NBDA
  MBC data (outgrowth): 0.755 and 1.060
[10]; 0.31% NBDA
  MBC data (outgrowth): 0.078 and 0.077
[10]; 0.63% NBDA
  MBC data (outgrowth): 0.208 and 0.248
[10]; 1.25% NBDA
  MBC data (outgrowth): 0.077
[10]; 2.50% NBDA
  MBC data (outgrowth): 0.075 and 0.077
[10]; 5.00% NBDA
  MBC data (outgrowth): 0.067 and 0.068
